Assay results reported in ChEMBL document CHEMBL1130963, “Design and construction of novel thrombin inhibitors featuring P3-P4 quaternary lactam dipeptide surrogates” (Bioorg Med Chem Lett, 1998).

Assays:
Coagulation factor X [1] = target: T1, Coagulation factor X (Homo sapiens, UniProt P00742)
Serine protease 1 = Serine protease 1 (Homo sapiens, UniProt P07477)
Prothrombin = Prothrombin (Homo sapiens, UniProt P00734); assay: In vitro inhibitory activity was evaluated against thrombin (FIIa)
[2] = Ratio of thrombolytic enzyme plasmin to thrombin (FIIa) was evaluated
Plasminogen [3] = target: T2, Plasminogen (Homo sapiens, UniProt P00747); assay: In vitro inhibitory activity was evaluated against thrombolytic enzyme plasmin
T2 sequence (P00747 97-580 limits assumed): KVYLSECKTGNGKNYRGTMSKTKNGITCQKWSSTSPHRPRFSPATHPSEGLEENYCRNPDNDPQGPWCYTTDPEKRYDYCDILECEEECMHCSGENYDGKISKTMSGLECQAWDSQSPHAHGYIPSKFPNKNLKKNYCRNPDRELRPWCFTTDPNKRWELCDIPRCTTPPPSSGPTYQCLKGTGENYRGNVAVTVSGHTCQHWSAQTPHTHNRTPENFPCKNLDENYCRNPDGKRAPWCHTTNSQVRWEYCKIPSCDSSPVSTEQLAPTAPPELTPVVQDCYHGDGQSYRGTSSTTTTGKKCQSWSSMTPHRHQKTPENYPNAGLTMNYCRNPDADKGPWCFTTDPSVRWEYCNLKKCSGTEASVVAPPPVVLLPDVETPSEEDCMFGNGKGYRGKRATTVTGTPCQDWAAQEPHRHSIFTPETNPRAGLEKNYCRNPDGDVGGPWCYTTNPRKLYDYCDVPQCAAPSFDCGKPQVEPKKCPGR
T2 sequence (P00747 581-810 limits assumed): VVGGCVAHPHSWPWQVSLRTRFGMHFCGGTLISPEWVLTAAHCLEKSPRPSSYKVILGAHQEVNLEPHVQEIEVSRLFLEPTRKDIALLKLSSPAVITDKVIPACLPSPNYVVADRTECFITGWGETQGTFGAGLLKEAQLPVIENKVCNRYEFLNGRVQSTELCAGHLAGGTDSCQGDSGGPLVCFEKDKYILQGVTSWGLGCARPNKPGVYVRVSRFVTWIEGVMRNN

Coagulation factor X [4] = target: T1, Coagulation factor X; assay: In vitro inhibitory activity was evaluated against thrombin factor Xa (FXa); Inactive
[5] = Ratio of thrombin factor Xa (FXa) to thrombin (FIIa) was evaluated; Very high
Plasminogen [6] = target: T2, Plasminogen; assay: In vitro inhibitory activity was evaluated against thrombolytic enzyme plasmin; Inactive

Serine protease 1, sequence (P07477 whole entry): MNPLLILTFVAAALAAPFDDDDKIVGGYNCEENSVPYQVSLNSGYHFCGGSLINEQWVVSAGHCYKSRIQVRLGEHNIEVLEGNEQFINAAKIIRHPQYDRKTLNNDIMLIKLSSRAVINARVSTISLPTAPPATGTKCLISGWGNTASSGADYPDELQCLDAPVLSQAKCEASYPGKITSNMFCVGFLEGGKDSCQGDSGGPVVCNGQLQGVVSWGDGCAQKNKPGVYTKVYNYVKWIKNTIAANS
T1 sequence (P00742 41-179 limits assumed): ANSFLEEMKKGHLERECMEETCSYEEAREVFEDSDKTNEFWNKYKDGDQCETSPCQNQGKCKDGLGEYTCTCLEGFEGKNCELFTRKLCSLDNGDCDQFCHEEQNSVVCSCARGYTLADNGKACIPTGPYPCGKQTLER
T1 sequence (P00742 235-488 limits assumed): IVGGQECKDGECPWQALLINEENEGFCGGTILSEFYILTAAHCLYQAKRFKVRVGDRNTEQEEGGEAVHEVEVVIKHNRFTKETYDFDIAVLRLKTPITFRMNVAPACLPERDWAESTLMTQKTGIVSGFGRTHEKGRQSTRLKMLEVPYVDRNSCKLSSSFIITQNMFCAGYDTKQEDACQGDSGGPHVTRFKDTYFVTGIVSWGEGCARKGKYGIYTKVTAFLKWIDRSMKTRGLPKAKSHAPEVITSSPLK

Row | SMILES | IC50 (Coagulation factor X [1]) [nM] | IC50 (Serine protease 1) [nM] | IC50 (Prothrombin) [nM] | Ratio [2] | IC50 (Plasminogen [3]) [nM] | IC50 (Coagulation factor X [4]) | Ratio [5] | IC50 (Plasminogen [6])
1 | CCOC(=O)[C@]1(NS(=O)(=O)Cc2ccccc2)CCCN(CC(=O)N[C@H]2CCCN(C(=N)N)[C@@H]2O)C1=O | 5.78 | 2 | 1.1 | 1.8 | 271 |  |  | 
2 | N=C(N)N1CCC[C@H](NC(=O)CN2CCC[C@H](NS(=O)(=O)Cc3ccccc3)C2=O)C1O (stereo partly drawn) |  |  |  | 128 | > 2500 |  |  | 
3 | N=C(N)N1CCC[C@H](NC(=O)CN2CCC[C@@](N)(Cc3ccccc3)C2=O)[C@H]1O |  | 139 | 2.07 | 67.1 |  | Not Active | Very high | Not Active
4 | N=C(N)N1CCC[C@H](NC(=O)CN2CCC[C@@](N)(Cc3ccccc3)C2=O)[C@@H]1O |  | 2500 | 138 | 18.2 |  | Not Active |  | Not Active
5 | CCOC(=O)[C@]1(NS(=O)(=O)Cc2ccccc2)CCCN(CC(=O)N[C@H]2CCCN(C(=N)N)[C@H]2O)C1=O | 43.2 | 202 | 64.4 | 3.1 | > 2500 |  |  | 
